From patent US20240082223A1, “DIHYDROFUROPYRIDINE DERIVATIVES AS RHO- KINASE INHIBITORS” (CHIESI FARMACEUTICI S.P.A., priority 2020, published 2024)

Tests used:
Assay type in all cases: biochemical
[1] = biological target: ROCK2 (Homo sapiens, UniProt O75116); assay: In vitro inhibitory activity assay ROCK2 (Method B, ADP-Glo, 200 μM ATP); details: ATP 200 μM, read-out: Method B ROCK 2 (Ki)
Description: (§1) In Vitro Inhibitory Activity Assay Description ROCK1 and ROCK2
(§2) The effectiveness of compounds of the present invention to inhibit Rho kinase activity can be determined in a 10 μl assay containing 40 mM Tris pH7.5, 20 mM MgCl2 0.1 mg/mL BSA, 50 μM DTT and 2.5 μM peptide substrate (Myelin Basic Protein) using an ADP-Glo kit (Promega). Compounds were dissolved in DMSO such that the final concentration of DMSO was 1% in the assay. All reactions/incubations are performed at 25° C. Compound (2 μL) and either Rho kinase 1 or 2 (4 μl) were mixed and incubated for 30 min. Reactions were initiated by addition of ATP (4 μL) such that the final concentration of ATP in the assay was 200 μM. After a 1 hour incubation […] of ADP-Glo Reagent was added and after a further 45 minute incubation 20 μL of Kinase Detection Buffer was added and the mixture incubated for a further 30 minutes. The luminescent signal was measured on a luminometer. […] Compounds were tested in dose-response format and the inhibition of kinase activity was calculated at each concentration of compound. To determine the IC50 (concentration of compound required to inhibit 50% of the enzyme activity) data were fit to a plot of % inhibition vs Log10 compound concentration using a sigmoidal fit with a variable slope and fixing the maximum to 100% and the minimum to 0%. To determine the Ki values the Cheng-Prusoff equation was utilized ([…].

[2] = biological target: ROCK1 (Homo sapiens, UniProt Q13464); assay: In vitro inhibitory activity assay ROCK1 (Method B, ADP-Glo, 200 μM ATP); details: ATP 200 μM, read-out: Method B ROCK 1 (Ki)
Sequence of ROCK1 (Q13464 whole entry): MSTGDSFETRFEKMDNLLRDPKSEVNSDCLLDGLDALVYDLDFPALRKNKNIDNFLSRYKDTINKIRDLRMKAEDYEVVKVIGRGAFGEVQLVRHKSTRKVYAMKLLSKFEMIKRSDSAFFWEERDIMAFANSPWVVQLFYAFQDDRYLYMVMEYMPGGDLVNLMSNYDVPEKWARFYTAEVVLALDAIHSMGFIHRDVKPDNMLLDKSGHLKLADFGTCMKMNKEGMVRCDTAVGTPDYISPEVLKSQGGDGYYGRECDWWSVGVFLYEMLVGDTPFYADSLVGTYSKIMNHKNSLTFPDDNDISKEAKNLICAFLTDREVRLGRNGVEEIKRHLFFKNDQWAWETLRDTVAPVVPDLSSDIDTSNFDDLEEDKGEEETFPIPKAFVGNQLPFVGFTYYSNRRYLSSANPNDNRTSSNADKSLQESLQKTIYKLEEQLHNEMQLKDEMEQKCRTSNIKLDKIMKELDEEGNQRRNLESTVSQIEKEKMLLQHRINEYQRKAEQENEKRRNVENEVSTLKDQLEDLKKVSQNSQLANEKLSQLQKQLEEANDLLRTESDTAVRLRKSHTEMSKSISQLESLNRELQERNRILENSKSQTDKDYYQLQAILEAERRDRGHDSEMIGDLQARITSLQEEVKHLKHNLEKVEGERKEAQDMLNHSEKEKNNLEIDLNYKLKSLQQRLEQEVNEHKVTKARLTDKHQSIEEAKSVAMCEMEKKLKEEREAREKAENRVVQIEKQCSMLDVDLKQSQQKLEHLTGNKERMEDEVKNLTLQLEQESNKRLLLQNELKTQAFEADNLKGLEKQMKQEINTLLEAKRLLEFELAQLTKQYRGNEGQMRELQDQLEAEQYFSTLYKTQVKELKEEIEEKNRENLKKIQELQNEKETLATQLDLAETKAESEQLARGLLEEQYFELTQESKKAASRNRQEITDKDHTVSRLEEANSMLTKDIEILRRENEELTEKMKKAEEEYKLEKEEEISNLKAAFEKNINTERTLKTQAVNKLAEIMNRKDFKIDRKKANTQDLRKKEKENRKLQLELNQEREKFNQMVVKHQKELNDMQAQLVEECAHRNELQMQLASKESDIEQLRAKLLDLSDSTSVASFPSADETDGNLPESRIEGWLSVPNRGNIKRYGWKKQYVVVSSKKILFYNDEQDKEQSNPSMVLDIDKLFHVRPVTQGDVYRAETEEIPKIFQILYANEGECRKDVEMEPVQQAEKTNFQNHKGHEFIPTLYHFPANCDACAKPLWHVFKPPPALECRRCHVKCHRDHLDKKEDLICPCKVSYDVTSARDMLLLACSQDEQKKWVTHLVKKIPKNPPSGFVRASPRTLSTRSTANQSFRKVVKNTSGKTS
Description: as §1, §2

[3] = biological target: PKA (Homo sapiens, UniProt P17612); assay: In vitro inhibitory activity assay for PKA (ADP-Glo), reported as selectivity ratio vs ROCK2; details: Ki PKA divided by Ki ROCK2 (method B)
Description: In vitro inhibitory activity assay description for PKA
The effectiveness of compounds of the present invention to inhibit PKA activity can be determined in a […], assay containing 40 mM Tris pH7.5, 20 mM MgCl2 0.1 mg/mL BSA, 50 μM DTT and 260 μM peptide substrate (kemptide) using an ADP-Glo kit (Promega). Compounds were dissolved in DMSO such that the final concentration of DMSO was 1% in the assay. All reactions/incubations are performed at 25° C. Compound and PKA enzyme (6 μl) were mixed and incubated for 30 min. Reactions were initiated by addition of ATP (4 μL) such that the final concentration of ATP in the assay was 10 μM. After a 30 minute incubation 10 μL of ADP-Glo Reagent was added and after a further 1 hour incubation 20 μL of Kinase Detection Buffer was added and the mixture incubated for a further 45 minutes. The luminescent signal was measured on a luminometer. […] Compounds were tested in dose-response format and the inhibition of kinase activity was calculated at each concentration of compound. To determine the IC50 (concentration of compound required to inhibit 50% of the enzyme activity) data were fit to a plot of % inhibition vs Log10 compound concentration using a sigmoidal fit with a variable slope and fixing the maximum to 100% and the minimum to 0%. To determine the Ki values the Cheng-Prusoff equation was utilized (Ki=IC50/(1+[S]/Km).
In vitro inhibitory activities for PKA were reported as selectivity ratio vs. ROCK2. Selectivity ratio PKA/ROCK2 was calculated by dividing the Ki value for PKA by Ki value of ROCK2 (method B) and reported into table 1.

Sequence of ROCK2 (O75116 whole entry): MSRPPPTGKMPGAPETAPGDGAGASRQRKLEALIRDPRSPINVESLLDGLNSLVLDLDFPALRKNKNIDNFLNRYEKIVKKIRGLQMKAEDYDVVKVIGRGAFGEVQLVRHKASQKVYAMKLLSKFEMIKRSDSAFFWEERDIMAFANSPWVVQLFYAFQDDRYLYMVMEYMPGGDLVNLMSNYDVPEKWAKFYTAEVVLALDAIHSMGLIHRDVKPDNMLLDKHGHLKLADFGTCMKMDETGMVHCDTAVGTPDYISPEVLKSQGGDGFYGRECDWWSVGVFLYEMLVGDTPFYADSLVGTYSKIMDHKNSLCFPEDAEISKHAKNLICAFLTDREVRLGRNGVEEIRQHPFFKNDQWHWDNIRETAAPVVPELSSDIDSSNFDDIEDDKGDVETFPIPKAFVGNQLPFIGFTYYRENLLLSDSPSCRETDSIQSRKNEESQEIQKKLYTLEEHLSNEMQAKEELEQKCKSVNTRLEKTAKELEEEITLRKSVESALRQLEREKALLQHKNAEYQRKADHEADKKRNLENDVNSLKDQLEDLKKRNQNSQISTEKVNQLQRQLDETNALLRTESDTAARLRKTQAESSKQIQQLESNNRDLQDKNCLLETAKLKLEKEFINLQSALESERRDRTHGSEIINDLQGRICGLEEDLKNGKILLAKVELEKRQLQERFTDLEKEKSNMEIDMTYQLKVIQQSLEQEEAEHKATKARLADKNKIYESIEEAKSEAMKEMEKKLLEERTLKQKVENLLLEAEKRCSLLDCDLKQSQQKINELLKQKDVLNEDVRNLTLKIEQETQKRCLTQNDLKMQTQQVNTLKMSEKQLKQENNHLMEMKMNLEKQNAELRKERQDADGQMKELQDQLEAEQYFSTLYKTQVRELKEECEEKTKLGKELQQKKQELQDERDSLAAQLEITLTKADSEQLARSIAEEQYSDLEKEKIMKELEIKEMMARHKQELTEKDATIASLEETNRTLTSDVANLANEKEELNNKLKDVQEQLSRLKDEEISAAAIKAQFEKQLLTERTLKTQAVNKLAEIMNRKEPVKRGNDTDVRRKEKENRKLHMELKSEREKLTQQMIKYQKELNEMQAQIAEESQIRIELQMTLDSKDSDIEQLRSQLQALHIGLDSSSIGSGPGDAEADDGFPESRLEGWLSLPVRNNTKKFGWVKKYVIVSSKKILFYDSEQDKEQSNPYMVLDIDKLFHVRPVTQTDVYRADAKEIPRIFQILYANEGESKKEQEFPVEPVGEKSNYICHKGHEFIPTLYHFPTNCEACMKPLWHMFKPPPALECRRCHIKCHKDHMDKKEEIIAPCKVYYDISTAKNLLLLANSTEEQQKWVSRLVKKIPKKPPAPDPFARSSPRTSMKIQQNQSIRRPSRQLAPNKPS

| SMILES | Ki [1] [nM] | Ki [2] [nM] | Ratio Ki PKA/ROCK2 [3] |
| --- | --- | --- | --- |
| O=C(NC1CC(F)(F)C1)c1cccc(CNc2ncc(-c3cn[nH]c3)c3c2CCO3)c1 [Example 12, 3-(((7-(1H-pyrazol-4-yl)-2,3-dihydrofuro[3,2-c]pyridin-4-yl)amino)methyl)-N-(3,3-difluorocyclobutyl)benzamide] | 3 to 30 | 3 to 30 | *** (ratio≥10) |
| O=C(NC1CCN(C2CC2)CC1)c1cccc(CNc2ncc(-c3cn[nH]c3)c3c2CCO3)c1 [Example 1, 3-(((7-(1H-Pyrazol-4-yl)-2,3-dihydrofuro[3,2-c]pyridin-4-yl)amino)methyl)-N-(1-cyclopropylpiperidin-4-yl)benzamide] | ≤ 3 | ≤ 3 | *** (ratio≥10) |
| O=C(NCC1CCCCO1)c1cccc(CNc2ncc(-c3cn[nH]c3)c3c2CCO3)c1 (single isomer, unassigned; enantiomer 2) [Example 56, 3-(((7-(1H-pyrazol-4-yl)-2,3-dihydrofuro[3,2-c]pyridin-4-yl)amino)methyl)-N-((tetrahydro-2H-pyran-2-yl)methyl)benzamide (Enantiomer 2)] | ≤ 3 | ≤ 3 | *** (ratio≥10) |
| CC1(C)CC(NC(=O)c2cccc(CNc3ncc(-c4cn[nH]c4)c4c3CCO4)c2)CO1 (stereo not drawn) [Example 6, 3-(((7-(1H-pyrazol-4-yl)-2,3-dihydrofuro[3,2-c]pyridin-4-yl)amino)methyl)-N-(5,5-dimethyltetrahydrofuran-3-yl)benzamide] | 3 to 30 | 3 to 30 | *** (ratio≥10) |
| O=C(NCC1CCCCO1)c1cccc(CNc2ncc(-c3cn[nH]c3)c3c2CCO3)c1 (racemic) [Example 11, 3-(((7-(1H-pyrazol-4-yl)-2,3-dihydrofuro[3,2-c]pyridin-4-yl)amino)methyl)-N-((tetrahydro-2H-pyran-2-yl)methyl)benzamide] | ≤ 3 | ≤ 3 | *** (ratio≥10) |
| c1ccc(CNc2ncc(-c3cn[nH]c3)c3c2CCO3)cc1 [Example C, N-Benzyl-7-(1H-pyrazol-4-yl)-2,3-dihydrofuro[3,2-c]pyridin-4-amine, reference compound] | > 30 | > 30 | * (ratio≤5) |
| COc1ccc(NC(=O)c2cccc(CNc3ncc(-c4cn[nH]c4)c4c3CCO4)c2)nc1 [Example 31, 3-(((7-(1H-Pyrazol-4-yl)-2,3-dihydrofuro[3,2-c]pyridin-4-yl)amino)methyl)-N-(5-methoxypyridin-2-yl)benzamide] | ≤ 3 | ≤ 3 | *** (ratio≥10) |
| Cn1cnc(CNC(=O)c2cccc(CNc3ncc(-c4cn[nH]c4)c4c3CCO4)c2)c1 [Example 8, 3-(((7-(1H-pyrazol-4-yl)-2,3-dihydrofuro[3,2-c]pyridin-4-yl)amino)methyl)-N-((1-methyl-1H-imidazol-4-yl)methyl)benzamide] | ≤ 3 | 3 to 30 | *** (ratio≥10) |
| O=C(Nc1ccncn1)c1cccc(CNc2ncc(-c3cn[nH]c3)c3c2CCO3)c1 [Example 32, 3-(((7-(1H-pyrazol-4-yl)-2,3-dihydrofuro[3,2-c]pyridin-4-yl)amino)methyl)-N-(pyrimidin-4-yl)benzamide] | ≤ 3 | ≤ 3 | *** (ratio≥10) |
| O=C(NCCCF)c1cccc(CNc2ncc(-c3cn[nH]c3)c3c2CCO3)c1 [Example 3, 3-(((7-(1H-pyrazol-4-yl)-2,3-dihydrofuro[3,2-c]pyridin-4-yl)amino)methyl)-N-(3-fluoropropyl)benzamide] | 3 to 30 | 3 to 30 | *** (ratio≥10) |
| O=C(NCC1CC1)c1cccc(CNc2ncc(-c3cn[nH]c3)c3c2CCO3)c1 [Example 5, 3-(((7-(1H-pyrazol-4-yl)-2,3-dihydrofuro[3,2-c]pyridin-4-yl)amino)methyl)-N-(cyclopropylmethyl)benzamide] | 3 to 30 | 3 to 30 | *** (ratio≥10) |
